Measured values taken from patent US9944646B2, “Bicyclic azaheterocyclobenzylamines as PI3K inhibitors” (Incyte Corporation, priority 2012, dated 2018).

What follows are molecules tested against PI3Kδ (Homo sapiens (Human), UniProt O00329) (assay: PI3K Enzyme Assay (Example A2), [γ-33P]ATP filter plate).
Format: biochemical
Description: Example A2: PI3K Enzyme Assay
Lipid kinase substrate, phosphoinositol-4,5-bisphosphate (PIP2), are purchased from Echelon Biosciences (Salt Lake City, Utah). PI3K isoforms α, β, δ and γ are purchased from Millipore (Bedford, Mass.). ATP, MgCl2, DTT, EDTA, MOPS and CHAPS are purchased from Sigma-Aldrich (St. Louis, Mo.).
The kinase reaction are conducted in clear-bottom 96-well plate from Thermo Fisher Scientific in a final volume of 24 μL. Inhibitors are first diluted serially in DMSO and added to the plate wells before the addition of other reaction components. The final concentration of DMSO in the assay is 0.5%. The PI3K assays are carried out at room temperature in 20 mM MOPS, pH 6.7, 10 mM MgCl2, 5 mM DTT and CHAPS 0.03%. The reaction mixture is prepared containing 50 µM PIP2, kinase and varying concentration of inhibitors. Reactions are initiated by the addition of ATP containing 2.2 μCi [γ-^33P]ATP to a final concentration of 1000 μM. The final concentration of PI3K isoforms α, β, δ and γ in the assay were 1.3, 9.4, 2.9 and 10.8 nM, respectively. Reactions are incubated for 180 minutes and terminated by the addition of 100 μL of 1 M potassium phosphate pH 8.0, 30 mM EDTA quench buffer. A 100 μL aliquot of the reaction solution are then transferred to 96-well Millipore MultiScreen IP […] PVDF filter plate (The filter plate is prewetted with 200 μL 100% ethanol, distilled water, and 1 M potassium phosphate pH 8.0, respectively). The filter plate is aspirated on a Millipore Manifold under vacuum and washed with 18×200 μL wash buffer containing 1 M potassium phosphate pH 8.0 and 1 mM ATP. After drying by aspiration and blotting, the plate is air dried in an incubator at 37° C. overnight. Packard TopCount adapter (Millipore) is then attached to the plate followed with addition of 120 μL Microscint 20 scintillation cocktail (Perkin Elmer) in each well. After the plate sealing, the radioactivity of the product is determined by scintillation counting on Topcount (Perkin-Elmer). IC50 determination is performed by fitting the curve of percent control activity versus the log of the inhibitor concentration using the GraphPad Prism 3.0 software.

Sequence of PI3Kδ (O00329 whole entry): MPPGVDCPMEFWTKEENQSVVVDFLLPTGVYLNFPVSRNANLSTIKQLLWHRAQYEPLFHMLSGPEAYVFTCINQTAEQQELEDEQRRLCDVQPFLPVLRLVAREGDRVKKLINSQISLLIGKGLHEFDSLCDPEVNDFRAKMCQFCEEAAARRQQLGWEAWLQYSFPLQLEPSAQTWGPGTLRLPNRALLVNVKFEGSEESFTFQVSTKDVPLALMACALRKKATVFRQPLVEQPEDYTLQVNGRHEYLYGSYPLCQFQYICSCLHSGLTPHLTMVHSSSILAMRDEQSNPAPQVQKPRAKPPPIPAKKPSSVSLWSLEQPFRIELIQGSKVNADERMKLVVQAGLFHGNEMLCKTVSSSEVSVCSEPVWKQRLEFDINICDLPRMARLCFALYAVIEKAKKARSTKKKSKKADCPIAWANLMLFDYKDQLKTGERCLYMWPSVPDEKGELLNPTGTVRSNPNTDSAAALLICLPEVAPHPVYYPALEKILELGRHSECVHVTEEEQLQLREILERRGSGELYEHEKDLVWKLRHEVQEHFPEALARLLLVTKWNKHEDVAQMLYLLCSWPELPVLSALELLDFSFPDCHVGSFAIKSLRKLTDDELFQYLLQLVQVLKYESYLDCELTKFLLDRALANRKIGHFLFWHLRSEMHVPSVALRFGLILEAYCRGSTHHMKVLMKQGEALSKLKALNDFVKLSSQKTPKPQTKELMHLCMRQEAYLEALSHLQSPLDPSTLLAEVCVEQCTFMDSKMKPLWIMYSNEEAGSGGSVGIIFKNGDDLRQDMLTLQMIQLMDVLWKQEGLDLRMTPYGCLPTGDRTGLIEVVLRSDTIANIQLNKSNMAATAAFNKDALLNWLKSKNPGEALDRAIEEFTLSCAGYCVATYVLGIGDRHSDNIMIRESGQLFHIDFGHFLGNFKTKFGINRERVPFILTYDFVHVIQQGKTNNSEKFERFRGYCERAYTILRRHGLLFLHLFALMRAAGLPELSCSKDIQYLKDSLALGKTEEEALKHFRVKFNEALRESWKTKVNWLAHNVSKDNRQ
Sequence of PI3Kδ (P27986 whole entry partner): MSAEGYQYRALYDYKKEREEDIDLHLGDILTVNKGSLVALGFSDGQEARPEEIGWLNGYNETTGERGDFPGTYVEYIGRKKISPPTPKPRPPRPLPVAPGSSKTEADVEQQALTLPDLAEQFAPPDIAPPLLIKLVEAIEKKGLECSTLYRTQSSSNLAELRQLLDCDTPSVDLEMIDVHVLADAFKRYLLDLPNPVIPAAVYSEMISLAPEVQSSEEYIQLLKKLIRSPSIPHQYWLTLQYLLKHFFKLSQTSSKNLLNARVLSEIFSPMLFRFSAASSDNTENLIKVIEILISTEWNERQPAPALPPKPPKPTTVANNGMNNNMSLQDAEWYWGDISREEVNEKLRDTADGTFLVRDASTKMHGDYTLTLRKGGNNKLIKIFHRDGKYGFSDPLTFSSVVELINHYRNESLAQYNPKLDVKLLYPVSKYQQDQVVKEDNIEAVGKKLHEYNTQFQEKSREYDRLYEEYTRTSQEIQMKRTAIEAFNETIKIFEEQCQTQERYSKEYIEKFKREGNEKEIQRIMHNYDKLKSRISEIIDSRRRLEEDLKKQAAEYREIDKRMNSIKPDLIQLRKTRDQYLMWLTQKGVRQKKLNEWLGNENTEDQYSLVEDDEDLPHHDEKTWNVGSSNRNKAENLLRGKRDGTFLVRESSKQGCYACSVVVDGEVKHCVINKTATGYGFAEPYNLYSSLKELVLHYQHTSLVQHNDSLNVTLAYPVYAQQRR

Compound	IC50
CCC1CN(CCO)Cc2c(C#N)c(Cl)cc(C(C)n3nc(C)c4c(N)ncnc43)c2O1 (single isomer, unassigned) [Example 70, 9-[1-(4-Amino-3-methyl-1H-pyrazolo[3,4-d]pyrimidin-1-yl)ethyl]-7-chloro-2-ethyl-4-(2-hydroxyethyl)-2,3,4,5-tetrahydro-1,4-benzoxazepine-6-carbonitrile]	≤ 100 nM
Cc1nn(C(C)c2cc(Cl)c(C#N)c3c2OC(C)CN(C2CN(S(C)(=O)=O)C2)C3)c2ncnc(N)c12 (single isomer, unassigned) [Example 94, 9-[1-(4-amino-3-methyl-1H-pyrazolo[3,4-d]pyrimidin-1-yl)ethyl]-7-chloro-2-methyl-4-[1-(methylsulfonyl)azetidin-3-yl]-2,3,4,5-tetrahydro-1,4-benzoxazepine-6-carbonitrile]	≤ 100 nM
Cc1nn(C(C)c2cc(Cl)c(C#N)c3c2OC(C)CN(C2CN(CC(N)=O)C2)C3)c2ncnc(N)c12 (single isomer, unassigned) [Example 51, 2-{3-[9-[1-(4-Amino-3-methyl-1H-pyrazolo[3,4-d]pyrimidin-1-yl)ethyl]-7-chloro-6-cyano-2-methyl-2,3-dihydro-1,4-benzoxazepin-4(5H)-yl]azetidin-1-yl}acetamide]	≤ 100 nM
Cc1nn(C(C)c2cc(Cl)c(C#N)c3c2OC(C)CN(CCO)C3)c2ncnc(N)c12 (single isomer, unassigned) [Example 61, 9-[1-(4-Amino-3-methyl-1H-pyrazolo[3,4-d]pyrimidin-1-yl)ethyl]-7-chloro-4-(2-hydroxyethyl)-2-methyl-2,3,4,5-tetrahydro-1,4-benzoxazepine-6-carbonitrile]	> 800 nM
COCCN1Cc2c(C#N)c(Cl)cc(C(C)n3nc(C)c4c(N)ncnc43)c2OC(C)C1 (single isomer, unassigned) [Example 112, 9-[1-(4-amino-3-methyl-1H-pyrazolo[3,4-d]pyrimidin-1-yl)ethyl]-7-chloro-4-(2-methoxyethyl)-2-methyl-2,3,4,5-tetrahydro-1,4-benzoxazepine-6-carbonitrile]	≤ 100 nM
Cc1nn(C(C)c2cc(Cl)c(F)c3c2OC(C)CN(C2CN(C(N)=O)C2)C3)c2ncnc(N)c12 (single isomer, unassigned) [Example 83, 3-[9-[1-(4-amino-3-methyl-1H-pyrazolo[3,4-d]pyrimidin-1-yl)ethyl]-7-chloro-6-fluoro-2-methyl-2,3-dihydro-1,4-benzoxazepin-4(5H)-yl]azetidine-1-carboxamide]	≤ 100 nM
Cc1nn(C(C)c2cc(Cl)c(F)c3c2O[C@@H](C)CN(C2CN(CC(N)=O)C2)C3)c2ncnc(N)c12 (single isomer, unassigned) [Example 88]	≤ 100 nM
CCC(=O)N1CC(N2CCOc3c(C(C)n4nc(C)c5c(N)ncnc54)cc(Cl)c(C#N)c3C2)C1 (stereo not drawn) [Example 89, 9-[1-(4-amino-3-methyl-1H-pyrazolo[3,4-d]pyrimidin-1-yl)ethyl]-7-chloro-4-(1-propionylazetidin-3-yl)-2,3,4,5-tetrahydro-1,4-benzoxazepine-6-carbonitrile]	≤ 100 nM
Cc1nn(C(C)c2cc(Cl)c(C#N)c3c2OC(C)CN(CC(C)(C)O)C3)c2ncnc(N)c12 (single isomer, unassigned) [Example 65, 9-[1-(4-Amino-3-methyl-1H-pyrazolo[3,4-d]pyrimidin-1-yl)ethyl]-7-chloro-4-(2-hydroxy-2-methylpropyl)-2-methyl-2,3,4,5-tetrahydro-1,4-benzoxazepine-6-carbonitrile]	≤ 100 nM
Cc1nn(C(C)c2cc(Cl)c(F)c3c2OC(C)CN(S(C)(=O)=O)C3)c2ncnc(N)c12 (single isomer, unassigned) [Example 38, 1-{1-[7-Chloro-6-fluoro-2-methyl-4-(methylsulfonyl)-2,3,4,5-tetrahydro-1,4-benzoxazepin-9-yl]ethyl}-3-methyl-1H-pyrazolo[3,4-d]pyrimidin-4-amine]	> 800 nM
CCOC(=O)N1CC(N2Cc3c(C#N)c(Cl)cc(C(C)n4nc(C)c5c(N)ncnc54)c3OC(C)C2)C1 (single isomer, unassigned) [Example 99, ethyl 3-[9-[1-(4-amino-3-methyl-1H-pyrazolo[3,4-d]pyrimidin-1-yl)ethyl]-7-chloro-6-cyano-2-methyl-2,3-dihydro-1,4-benzoxazepin-4(5H)-yl]azetidine-1-carboxylate]	≤ 100 nM
CC(=O)N1CC(N2Cc3c(F)c(Cl)cc(C(C)n4nc(C)c5c(N)ncnc54)c3OC(C)C2)C1 (single isomer, unassigned) [Example 33, 1-{1-[4-(1-Acetylazetidin-3-yl)-7-chloro-6-fluoro-2-methyl-2,3,4,5-tetrahydro-1,4-benzoxazepin-9-yl]ethyl}-3-methyl-1H-pyrazolo[3,4-d]pyrimidin-4-amine]	100 to 500 nM
CC(=O)NC1CC(N2Cc3c(C#N)c(Cl)cc(C(C)n4nc(C)c5c(N)ncnc54)c3OC(C)C2)C1 (single isomer, unassigned) [Example 67, N-{3-[9-[1-(4-Amino-3-methyl-1H-pyrazolo[3,4-d]pyrimidin-1-yl)ethyl]-7-chloro-6-cyano-2-methyl-2,3-dihydro-1,4-benzoxazepin-4(5H)-yl]cyclobutyl}acetamide]	≤ 100 nM
Cc1nn(C(C)c2cc(Cl)c(C#N)c3c2OC(C)CN(C2CN(CC(N)=O)C2)C3)c2ncnc(N)c12 (single isomer, unassigned) [Example 50, 2-{3-[9-[1-(4-Amino-3-methyl-1H-pyrazolo[3,4-d]pyrimidin-1-yl)ethyl]-7-chloro-6-cyano-2-methyl-2,3-dihydro-1,4-benzoxazepin-4(5H)-yl]azetidin-1-yl}acetamide]	≤ 100 nM
CCC(=O)N1CC(N2Cc3c(F)c(Cl)cc(C(C)n4nc(C)c5c(N)ncnc54)c3OC(C)C2)C1 (stereo not drawn) [Example 76, 1-{1-[7-chloro-6-fluoro-2-methyl-4-(1-propionylazetidin-3-yl)-2,3,4,5-tetrahydro-1,4-benzoxazepin-9-yl]ethyl}-3-methyl-1H-pyrazolo[3,4-d]pyrimidin-4-amine]	≤ 100 nM
Cc1nn(C(C)c2cc(Cl)c(C#N)c3c2OC(C)CN(C2CN(C(=O)NC(C)C)C2)C3)c2ncnc(N)c12 (single isomer, unassigned) [Example 102, 3-[9-[1-(4-amino-3-methyl-1H-pyrazolo[3,4-d]pyrimidin-1-yl)ethyl]-7-chloro-6-cyano-2-methyl-2,3-dihydro-1,4-benzoxazepin-4(5H)-yl]-N-isopropylazetidine-1-carboxamide]	≤ 100 nM
CNC(=O)C1CC(N2Cc3c(C#N)c(Cl)cc(C(C)n4nc(C)c5c(N)ncnc54)c3OC(C)C2)C1 (single isomer, unassigned) [Example 113, 3-[9-[1-(4-amino-3-methyl-1H-pyrazolo[3,4-d]pyrimidin-1-yl)ethyl]-7-chloro-6-cyano-2-methyl-2,3-dihydro-1,4-benzoxazepin-4(5H)-yl]-N-methylcyclobutanecarboxamide]	≤ 100 nM
CC(=O)N1CC(N2Cc3c(C#N)c(Cl)cc(C(C)n4nc(C)c5c(N)ncnc54)c3OC(C)C2)C1 (single isomer, unassigned) [Example 48, 4-(1-Acetylazetidin-3-yl)-9-[1-(4-amino-3-methyl-1H-pyrazolo[3,4-d]pyrimidin-1-yl)ethyl]-7-chloro-2-methyl-2,3,4,5-tetrahydro-1,4-benzoxazepine-6-carbonitrile]	100 to 500 nM
